Values after ≈ are worked out from the molar mass of the structure shown.
What was measured:
[1] = system: Salmonella typhimurium OCC 722; assay: Bioscreen growth, comparison with conventional selective agents (Example 12); type: cell-based; details: Buffered Peptone Water pH 6.8
Experimental: (§1) The following is an example to illustrate the beneficial lower toxic properties of the new selective agents towards the target microorganism, in this case Salmonella. Two selective agents, cefsulodin and novobiocin, as used conventionally in Salmonella isolation from foods (Humphrey and Whitehead, 1992 British Poultry Science 33, 761-768) were compared with alaphosphin. All were dissolved in deionised water, filter sterilised, and an amount of the solution added to either autoclaved Lab-Lemco broth+phosphate buffer (20 g/l; pH 6.0; ala-AEP) or Buffered Peptone Water (pH 6.8; cefsulodin and novobiocin) to give final concentrations of 66, 16.5 and 11 μg/ml respectively. [The different pH values reflect the different pH optima of the selective agents (ala-AEP was also subsequently used in BPW at pH 6.8 and similar results obtained)]. Volumes (300 μl) were then pipetted into the wells of Bioscreen microtitre plates and 30 μl quantities of 1 in 10,000 dilutions of overnight cultures of E. coli OCC 2129 and Salmonella typhimurium OCC 722, added. Plates were then covered, incubated at 37° C., and the opacity of the organism suspensions measured using a Bioscreen instrument.
(§2) Typical results are shown in FIGS. 17-19, which are graphs of optical density against time for S. typhimurium (circles) and E. coli (squares) in the presence (empty symbols) or absence (filled symbols) of 15 μg/ml cefsulodin (FIG. 17), 10 μg/ml novobiocin (FIG. 18) or 60 μg/ml alaphosphin (FIG. 19).

[2] = system: E. coli OCC 2129; assay: as above; type: cell-based, Escherichia coli; details: at 12 hours
Experimental: as §1, §2

[3] = system: K. pneumoniae CMCC 3077; assay: growth on nutrient agar, mixed culture with B. subtilis (Example 8); type: cell-based, Klebsiella pneumoniae; details: all concentrations tested
Text: (§3) Example 6 was repeated, this time using a mixed culture of B. subtilis OCC 214 and K. pneumoniae CMCC 3077, in the presence of AEP or alaphosphin. The empty columns show the growth of B. subtilis, the shaded columns denote growth of K. pneumoniae.

[4] = system: heat stressed Salmonella typhimurium (OCC 1792); assay: resuscitation of heat-stressed cells, microtitre MPN method (Example 14); type: cell-based; details: BPW supplemented with 3 different levels of AEP, relative to BPW alone
Experimental: Salmonella typhimurium (OCC 1792) was heat stressed at 51.4° C. for 25 minutes according to the protocol of Stephens et al. (1997 J. Appl. Micro. 8, 445-455). Cells were diluted in 7 different resuscitation media: yeast extract broth with a high reactive oxygen species content that is inhibitory to stressed cells, SPRINT enrichment broth supplemented with Oxyrase that is an optimised resuscitation medium, BPW as the control that has typical resuscitation properties, BPW supplemented with NaCl that is inhibitory to stressed cells, and BPW supplemented with 3 different levels of AEP. Resuscitation was quantified using a microtitre MPN method.
Typical results are shown in FIG. 20 which is a bar chart showing the difference in growth (Log cfu/ml) of the stressed cells in various media relative to growth in BPW alone.

[5] = system: S. aureus OCC 102; assay: growth on nutrient agar, mixed culture with K. pneumoniae (Example 6); type: cell-based, Staphylococcus aureus
Text: (§4) Example 1 was repeated, this time using a mixed culture of K. pneumoniae CMCC 3077 and S. aureus OCC 102. The results for growth in the presence of AEP or alaphosphin are shown in FIGS. 7 and 8 respectively: empty columns represent growth of S. aureus, the shaded columns represent growth of K. pneumoniae. […] Accordingly, there is a considerable alaphosphin concentration range over which S. aureus will readily grow whilst K. pneumoniae will be inhibited. Even if K. pneumoniae cells lyse due to the toxic effect of AEP released intracellularly, the AEP is not toxic for S. aureus at the concentrations involved.

[6] = system: Enterococcus faecalis OCC 640; assay: growth on nutrient agar streak plates, pure culture (Example 3); type: cell-based; details: E. faecalis OCC 640, nutrient agar, 0-10 mM tested
Text: Example 1 was repeated using Enterococcus faecalis OCC 640 as the test organism.

[7] = system: Staphylococcus aureus OCC 102; assay: growth on nutrient agar streak plates, pure culture (Example 5); type: cell-based; details: S. aureus OCC 102, nutrient agar, all concentrations tested (up to 10 mM)
Text: Example 1 was repeated using Staphylococcus aureus OCC 102 as the test organism.

[8] = system: Klebsiella pneumoniae CMCC 3077; assay: growth on nutrient agar streak plates, pure culture (Example 4); type: cell-based; details: K. pneumoniae CMCC 3077, nutrient agar, 0-10 mM tested
Text: Example 1 was repeated using Klebsiella pneumoniae CMCC 3077 as the test organism. The results are shown in FIG. 5, and are qualitatively similar to those obtained in example 2.

[9] = system: Salmonella typhimurium OCC 1870; assay: growth on nutrient agar streak plates, pure culture (Example 2); type: cell-based; details: S. typhimurium OCC 1870, nutrient agar, 0-10 mM tested
Text: Example 1 was repeated, using Salmonella typhimurium OCC 1870 as the test organism. The results are shown in FIG. 3, which uses the same key as FIG. 2.

[10] = system: K. pneumoniae CMCC 3077; assay: growth on nutrient agar, mixed culture with S. aureus (Example 6); type: cell-based, Klebsiella pneumoniae
Text: as §4

[11] = system: B. subtilis OCC 214; assay: growth on nutrient agar, mixed culture with K. pneumoniae (Example 8); type: cell-based, Bacillus subtilis; details: B. subtilis in mixed culture with K. pneumoniae
Text: as §3

[12] = system: Bacillus subtilis strain OCC 214; assay: growth on nutrient agar streak plates, pure culture (Example 1); type: cell-based; details: B. subtilis OCC214, nutrient agar, 0-10 mM tested
Text: In example 1 the sensitivity of Bacillus subtilis strain OCC 214 to alaphosphin or AEP was investigated. […] The organism is known to be LALA-ve, so the observations agree with the known characteristics of the organism.

[13] = system: Klebsiella pneumoniae CMCC3077; assay: total viable count in Nutrient Broth (Example 10); type: cell-based; details: 5 mM in Nutrient Broth, 37° C.
Experimental: Growth curve data on the activity of alaphosphin towards Klebsiella spp. was generated. Particular attention was paid to measuring the kinetics of inhibition in broth culture. The media used in this work were Buffered Peptone Water, Nutrient Broth and Tryptone Soya Agar. The media were prepared according to the manufacturer's instructions.
The selective agents, AEP (Cat. No. 06655) and alaphosphin (Cat. No. 05260), were supplied by Fluka. They were dissolved in water at 0.5M concentration, filter-sterilised, and 100 μl added to 10 ml of Nutrient Broth to give a final concentration in the test medium of 5 mM of AEP or alaphosphin respectively.
Klebsiella pneumnoniae CMCC3077 was chosen, as it is a food isolate and work had been carried out previously on this organism using alaphosphin and AEP (see preceding examples). The organism was inoculated into Nutrient Broth and incubated overnight at 37° C. […] The test media were incubated at 37° C., and sampled at hourly intervals. The cultures were serially diluted in Buffered Peptone Water and inoculated onto Tryptone Soya Agar. These plates were incubated overnight at 37° C. and the total viable count made the next day.
Typical results are shown in FIG. 15 which is a graph of total viable count (log10 cfu/ml) against time (hours).

[14] = system: Citrobacter, Enterobacter sakazakii and E. coli; assay: inhibition of the three undesired bacteria in DMSal (Example 17); type: cell-based
Experimental: (§5) Isoleucyl-AEP and sarcosyl-alanyl-AEP were compared to ala-AEP (all in DMSal medium) for the ability to selectively recover two clinically important pathogenic bacteria: Salmonella and Staphylococcus aureus.
(§6) For selective growth of Salmonella inhibition of Citrobacter, Enterobacter sakazakii and E. coli is important. […] Sarcosyl-alanyl-AEP used at a concentration of 1.0 μg/ml is sufficient to inhibit the growth of all three undesired bacteria while having no effect on growth of Salmonella typhimurium. […] Alternatively, a concentration of 2.0 μg/ml of isoleucyl-AEP is required to inhibit the growth of Citrobacter, Enterobacter sakazakii and E. coli and this concentration has no effect on the Salmonella typhimurium strain tested.

[15] = system: Salmonella typhimurium 722; assay: MIC in DMSal medium (Example 17); type: cell-based; details: for MIC: Salmonella typhimurium 722, DMSal medium; for effect on growth of Salmonella typhimurium: DMSal
Experimental: as §5, §6

[16] = system: Enterococcus faecalis 501; assay: MIC in DMSal medium (Example 17); type: cell-based; details: Enterococcus faecalis 501, DMSal medium
[17] = system: Enterobacter sakazakii 1888; assay: MIC in DMSal medium (Example 17); type: cell-based; details: Enterobacter sakazakii 1888, DMSal medium
[18] = system: E. coli 607; assay: MIC in DMSal medium (Example 17); type: cell-based; details: E. coli 607, DMSal medium
[19] = system: Enterococcus faecium 220; assay: MIC in DMSal medium (Example 17); type: cell-based; details: Enterococcus faecium 220, DMSal medium
[20] = system: Citrobacter freundii 370; assay: MIC in DMSal medium (Example 17); type: cell-based; details: Citrobacter freundii 370, DMSal medium
[21] = system: S. aureus (MRSA) 934; assay: MIC in DMSal medium (Example 17); type: cell-based; details: S. aureus (MRSA) 934, DMSal medium
Text: as §5

[22] = system: Enterococcus faecalis 581; assay: MIC in DMSal medium (Example 17); type: cell-based; details: Enterococcus faecalis 581, DMSal medium
Text: as §5

[23] = system: S. aureus ss aureus 2355; assay: MIC in DMSal medium (Example 17); type: cell-based; details: S. aureus ss aureus 2355, DMSal medium
Text: as §5

[24] = system: S. aureus 198; assay: MIC in DMSal medium (Example 17); type: cell-based; details: S. aureus 198, DMSal medium
Text: as §5

[25] = system: Enterococcus faecalis 640; assay: MIC in DMSal medium (Example 17); type: cell-based; details: Enterococcus faecalis 640, DMSal medium
[26] = log octanol/water; footnote a: Leo et al (1971); cited from earlier work

## CO[C@@H]1[C@@H](OC(N)=O)[C@@H](O)[C@H](Oc2ccc3c(O)c(NC(=O)c4ccc(O)c(CC=C(C)C)c4)c(=O)oc3c2C)OC1(C)C [novobiocin]
[1]; 10 μg/ml novobiocin
  effect on growth of S. typhimurium: significantly inhibit
[2]; 10 μg/ml novobiocin
  growth of E. coli relative to S. typhimurium: substantially outgrows

## CC(N)P(=O)(O)O [AEP, L-1-aminoethylphosphonic acid, reference compound]
[3]
  sensitivity of growth (in words): insensitive
[4]
  effect on resuscitation of heat-stressed Salmonella: did not significantly affect
[5]
  inhibition of growth (in words): neither organism was inhibited
[6]
  concentration at which growth is completely inhibited: ≥ 5 mM
[7]
  sensitivity of growth (in words): completely insensitive
[8]
  concentration at which growth is completely inhibited: > 10 mM
[9]
  concentration at which growth is completely inhibited: > 10 mM
[10]
  inhibition of growth (in words): neither organism was inhibited
[11]
  concentration above which some sensitivity is exhibited: above 5 mM
[12]
  concentration at which growth is inhibited: ≥ 5 mM
[13]
  effect on growth compared with Nutrient Broth control: little effect

## CNCC(=O)NC(C)C(=O)NC(C)P(=O)(O)O (centres unmarked)
[14]
  concentration sufficient / required to inhibit the growth of all three undesired bacteria: 1.0 µg/mL
[15]
  MIC: 2.0 µg/mL (≈ 7.48 µM)
[15]; sarcosyl-alanyl-AEP at 1.0 μg/ml
  effect on growth of Salmonella typhimurium: no effect
[16]
  MIC: 8 µg/mL (≈ 29.9 µM)
[17]
  MIC: 0.01 µg/mL (≈ 0.0374 µM)
[18]
  MIC: 0.05 µg/mL (≈ 0.187 µM)
[19]
  MIC: >256 µg/mL
[20]
  MIC: 1.0 µg/mL (≈ 3.74 µM)
[21]
  MIC: >100 µg/mL
[22]
  MIC: 8 µg/mL (≈ 29.9 µM)
[23]
  MIC: >100 µg/mL
[24]
  MIC: >100 µg/mL
[25]
  MIC: 16 µg/mL (≈ 59.9 µM)

## Nc1ccccc1 [Aniline]
[26]
  Log Partition Coefficient: 0.94^a

## O=[N+]([O-])c1ccccc1O [2-nitrophenol]
[26]
  Log Partition Coefficient: 2.00^a

## CCC(C)C(N)C(=O)NC(C)P(=O)(O)O (centres unmarked) [isoleucyl-AEP, Isoleucyl-AEP]
[14]
  concentration sufficient / required to inhibit the growth of all three undesired bacteria: 2.0 µg/mL
[15]
  MIC: 10 µg/mL (≈ 42 µM)
[15]; isoleucyl-AEP at 2.0 μg/ml
  effect on growth of Salmonella typhimurium: no effect
[16]
  MIC: 5 µg/mL (≈ 21 µM)
[17]
  MIC: 2.0 µg/mL (≈ 8.4 µM)
[18]
  MIC: 2.0 µg/mL (≈ 8.4 µM)
[19]
  MIC: 5 µg/mL (≈ 21 µM)
[20]
  MIC: 2.0 µg/mL (≈ 8.4 µM)
[22]
  MIC: 5 µg/mL (≈ 21 µM)
[23]
  MIC: >200 µg/mL
[25]
  MIC: 5 µg/mL (≈ 21 µM)

## NC(=O)c1cc[n+](CC2=C(C(=O)O)N3C(=O)[C@@H](NC(=O)[C@@H](c4ccccc4)S(=O)(=O)[O-])[C@H]3SC2)cc1 [cefsulodin]
[1]; 15 μg/ml cefsulodin
  effect on growth of S. typhimurium: significantly inhibit
[2]; 15 μg/ml cefsulodin
  growth of E. coli relative to S. typhimurium: substantially outgrows

Source: patent publication US20130189764A1, “SELECTIVE GROWTH MEDIA” (Oxide Limited, priority 2000, published 2013)
